# Assay results as given in patent US20260256792A1, “TREATMENT OF CHRONIC SPONTANEOUS URTICARIA BY ADMINISTERING (R)-2-[3-[4-AMINO-3-(2-FLUORO-4-PHENOXY-PHENYL)PYRAZOLO[3,4-D]PYRIMIDIN-1-YL]PIPERIDINE-1-CARBONYL]-4-METHYL-4-[4-(OXETAN-3-YL)PIPERAZIN-1-YL]PENT-2-ENENITRILE” (priority 2023, published 2026).
# Test system: moderate-to-severe chronic spontaneous urticaria (CSU)
# Experiment: Phase 2 CSU study: urticaria activity score over 7 days (UAS7)
# Assay type: in vivo, human
# Design: key to UAS7 Median / UAS7 Change from baseline Median / UAS7 change from baseline, Q1 / UAS7 change from baseline, Q3 / UAS7 change from baseline, Max / UAS7 Change from baseline LS Mean (SE): UAS7 points; daily UAS score ranges 0–6 points/day, over 7 days
# Description: The study comprises a 12 week, randomized, double-blind, placebo-controlled, multi-center, dose-ranging efficacy and safety phase, followed by a 40 week open label extension (OLE) phase (see FIG. 1). The study consists of three phases and an optional OLE phase. […] Clinically, CSU is characterized by the spontaneous and recurrent appearance of pruritic hives. The proposed primary endpoints were the UAS7 at Week 12 in EU and EU reference countries and the ISS7 in the US. Regardless of where a participant was from, all assessments were the same. The UAS7 score is a composite score containing both the HSS7 and the ISS7. This allowed a global assessment of the two key components of urticaria: hives and itch. […] The UAS is a validated PRO measure. […] The daily UAS scores range from 0 to 6 point/day. […] Patients were to complete the UAS using the e-diary. […] The following secondary endpoints were to be analyzed using the same approach as for the primary endpoint: • Change from baseline in UAS7 at Week 4 • Change from baseline in UAS7 at Week 12 (for US and US reference countries) • Change from baseline in ISS7 at Week 12 (except US and US reference countries) • Change from baseline in HSS7 at Week 12 The following responder secondary endpoints were to be analyzed using the Cochran-Mantel-Haenszel test adjusted by region: • Proportion of participants with UAS7<6 at Week 12 • Proportion of participants with UAS7=0 at Week 12 Participants who received selected prohibited medications and/or rescue medications were to be considered as non-responders for time points after the medication usage. For other participants, all available data including those collected during the off-treatment period were to be used to determine the responder/non-responder status. Missing data were to be considered as non-responders.
# [1] = Week 3, 400 mg TID, Omalizumab-Naïve
# [2] = Week 3, 400 mg TID, Prior Omalizumab Use
# [3] = Week 3, 400 mg TID, omalizumab-naive participants
# [4] = Week 4, 400 mg BID, ITT population
# [5] = Week 4, 400 mg BID, Omalizumab-Naïve
# [6] = Week 4, 400 mg BID, Prior Omalizumab Use
# [7] = Week 4, 400 mg BID, omalizumab-naive participants
# [8] = Week 4, 400 mg QPM, ITT population
# [9] = Week 4, 400 mg QPM, Omalizumab-Naïve
# [10] = Week 4, 400 mg QPM, Prior Omalizumab Use
# [11] = Week 4, 400 mg QPM, omalizumab-naive participants
# [12] = Week 4, 400 mg TID, ITT population
# [13] = Week 4, 400 mg TID, Omalizumab-Naïve
# [14] = Week 4, 400 mg TID, Prior Omalizumab Use
compound,measurement,setting,value
"CC(C)(C=C(C#N)C(=O)N1CCC[C@@H](n2nc(-c3ccc(Oc4ccccc4)cc3F)c3c(N)ncnc32)C1)N1CCN(C2COC2)CC1 [rilzabrutinib, (R)-2-[3-[4-amino-3-(2-fluoro-4-phenoxy-phenyl)pyrazolo[3,4-d]pyrimidin-1-yl]piperidine-1-carbonyl]-4-methyl-4-[4-(oxetan-3-yl)piperazin-1-yl]pent-2-enenitrile]",UAS7 Percent change from baseline Mean (SD),[1],−48.87 (33.07) %
same,UAS7 Percent change from baseline Median,[1],−48.08%
same,UAS7 Change from baseline Mean (SD),[2],−24.14 (11.99)
same,UAS7 Change from baseline Median,[2],−24.50
same,UAS7 Median,[2],7.67
same,UAS7 Percent change from baseline Mean (SD),[2],−71.37 (19.75) %
same,UAS7 Percent change from baseline Median,[2],−64.58%
same,"Non-responder, UAS7 reduction from baseline of 10 points or more",[3],14 (40.0) n (%)
same,"OR for rilzabrutinib vs. placebo, UAS7 reduction of 10 points or more",[3],2.949
same,"RRD (%) for rilzabrutinib vs. placebo, UAS7 reduction of 10 points or more",[3],27.1 %
same,"Responder, UAS7 reduction from baseline of 10 points or more",[3],21 (60.0) n (%)
same,"Non-responder, UAS7 reduction from baseline of 10 points or more",[4],19 (46.3) n (%)
same,"OR for rilzabrutinib vs. placebo, UAS7 reduction of 10 points or more",[4],1.853
same,"RRD (%) for rilzabrutinib vs. placebo, UAS7 reduction of 10 points or more",[4],14.7 %
same,"Responder, UAS7 reduction from baseline of 10 points or more",[4],22 (53.7) n (%)
same,UAS7 Change from baseline Mean (SD),[5],−13.49 (10.97)
same,UAS7 Change from baseline Median,[5],−11.00
same,UAS7 Mean (SD),[5],15.92 (11.71)
same,UAS7 Median,[5],14.00
same,UAS7 Percent change from baseline Mean (SD),[5],−46.55 (35.69) %
same,UAS7 Percent change from baseline Median,[5],−41.94%
same,UAS7 Change from baseline Mean (SD),[6],−21.80 (16.62)
same,UAS7 Change from baseline Median,[6],−26.00
same,UAS7 Mean (SD),[6],13.60 (16.55)
same,UAS7 Median,[6],3.00
same,UAS7 Percent change from baseline Mean (SD),[6],−62.33 (45.90) %
same,UAS7 Percent change from baseline Median,[6],−91.43%
same,"Non-responder, UAS7 reduction from baseline of 10 points or more",[7],17 (48.6) n (%)
same,"OR for rilzabrutinib vs. placebo, UAS7 reduction of 10 points or more",[7],2.046
same,"RRD (%) for rilzabrutinib vs. placebo, UAS7 reduction of 10 points or more",[7],16.8 %
same,"Responder, UAS7 reduction from baseline of 10 points or more",[7],18 (51.4) n (%)
same,"Non-responder, UAS7 reduction from baseline of 10 points or more",[8],23 (60.5) n (%)
same,"OR for rilzabrutinib vs. placebo, UAS7 reduction of 10 points or more",[8],1.224
same,"RRD (%) for rilzabrutinib vs. placebo, UAS7 reduction of 10 points or more",[8],4.4 %
same,"Responder, UAS7 reduction from baseline of 10 points or more",[8],15 (39.5) n (%)
same,UAS7 Change from baseline Mean (SD),[9],−9.18 (9.24)
same,UAS7 Change from baseline Median,[9],−7.00
same,UAS7 Mean (SD),[9],21.92 (8.82)
same,UAS7 Median,[9],21.00
same,UAS7 Percent change from baseline Mean (SD),[9],−27.91 (26.53) %
same,UAS7 Percent change from baseline Median,[9],−21.88%
same,UAS7 Change from baseline Mean (SD),[10],−23.00 (NC)
same,UAS7 Change from baseline Median,[10],−23.00
same,UAS7 Mean (SD),[10],18.00 (NC)
same,UAS7 Median,[10],18.00
same,UAS7 Percent change from baseline Mean (SD),[10],−56.10 (NC) %
same,UAS7 Percent change from baseline Median,[10],−56.10%
same,"Non-responder, UAS7 reduction from baseline of 10 points or more",[11],23 (62.2) n (%)
same,"OR for rilzabrutinib vs. placebo, UAS7 reduction of 10 points or more",[11],1.322
same,"RRD (%) for rilzabrutinib vs. placebo, UAS7 reduction of 10 points or more",[11],6.0 %
same,"Responder, UAS7 reduction from baseline of 10 points or more",[11],14 (37.8) n (%)
same,"Non-responder, UAS7 reduction from baseline of 10 points or more",[12],12 (29.3) n (%)
same,"OR for rilzabrutinib vs. placebo, UAS7 reduction of 10 points or more",[12],3.520
same,"RRD (%) for rilzabrutinib vs. placebo, UAS7 reduction of 10 points or more",[12],29.4 %
same,"Responder, UAS7 reduction from baseline of 10 points or more",[12],29 (70.7) n (%)
same,UAS7 Change from baseline Mean (SD),[13],−15.51 (9.79)
same,UAS7 Change from baseline Median,[13],−14.00
same,UAS7 Mean (SD),[13],14.65 (9.61)
same,UAS7 Median,[13],14.00
same,UAS7 Percent change from baseline Mean (SD),[13],−51.19 (29.70) %
same,UAS7 Percent change from baseline Median,[13],−51.09%
same,UAS7 Change from baseline Mean (SD),[14],−22.94 (13.84)
same,UAS7 Change from baseline Median,[14],−22.50
same,UAS7 Mean (SD),[14],10.08 (10.62)
same,UAS7 Median,[14],8.58
same,UAS7 Percent change from baseline Mean (SD),[14],−67.07 (27.75) %
